Measured values reported in paper PMC10136135, “Electronic Circular Dichroism Detects Conformational Changes Associated with Proteasome Gating Confirmed Using AFM Imaging” (Biomolecules, 2023).
Where a SMILES comes first, the peptide text is derived from it.

Key:
[1] = tested on: T1, h20S (human 20S proteasome); test: AFM imaging of gate conformers; also ECD shift; format: binding; conditions: 5 mM Tris-HCl pH 7; at least 15 min after addition; control 7 ± 1% open; ECD at 1 µM, 25 nM h20S, pH 7.6, 22 °C; allosteric, gate opening
T1 construct: gene PSMA1; 20S core particle, 28 subunits (alpha-beta-beta-alpha heptameric rings); commercial, Enzo Life Sciences (AFM); H2T4 at the alpha ring gate, Suc-LLVY-MCA at the beta5 (ChT-L) site; with Proteasome subunit beta type-6; Proteasome subunit beta type-7; Proteasome subunit beta type-3; Proteasome subunit beta type-2; Proteasome subunit beta type-1; Proteasome subunit beta type-4

[2] = tested on: T2, yWT20S / y20S WT (wild type yeast 20S proteasome); test: ECD spectral change (difference spectrum); format: binding, Saccharomyces cerevisiae; conditions: 25 nM 20S, 150 mM Tris, 100 mM NaCl, pH 7.6, 22 °C; H2T4 1 µM in text, 10 µM in figure legend; allosteric, gate opening
T2 construct: gene SCL1; 20S core particle, 28 subunits (alpha-beta-beta-alpha heptameric rings); with Proteasome subunit beta type-1; Proteasome subunit beta type-2; Proteasome subunit beta type-3; Proteasome subunit beta type-4; Proteasome subunit beta type-5; Proteasome subunit beta type-6; Proteasome subunit beta type-7

[3] = tested on: T1, h20S (human 20S proteasome); test: AFM imaging of gate conformers; format: binding; conditions: 5 mM Tris-HCl pH 7, 1% DMSO; beta5 (ChT-L) site

Row | Structure (SMILES) | % open conformers at 0.2 μM [1] | ECD spectral change (difference spectrum) [2] | % open conformers at 100 μM [3]
1 | C[n+]1ccc(-c2c3nc(c(-c4cc[n+](C)cc4)c4ccc([nH]4)c(-c4cc[n+](C)cc4)c4nc(c(-c5cc[n+](C)cc5)c5ccc2[nH]5)C=C4)C=C3)cc1 [H2T4, 5,10,15,20-tetrakis-4-N-methylpirydyl porphyrin] | 22 ± 1.3% | the addition of H2T4 induces changes in the ECD spectra of yWT20S | –
2 | Cc1cc(=O)oc2cc(NC(=O)[C@H](Cc3ccc(O)cc3)NC(=O)[C@@H](NC(=O)[C@H](CC(C)C)NC(=O)[C@H](CC(C)C)NC(=O)CCC(=O)O)C(C)C)ccc12 [SucLLVY-MCA, succinyl-LeuLeuValTyr-7-amino-4-methylcoumarin] (HELM PEPTIDE1{[O=C(O)CCC(=O)[*:2]].L.L.V.Y.[Cc1cc(=O)oc2cc(N[*:1])ccc12]}$$$$V2.0) | – | – | addition of the model substrate or the porphyrin ligand shifted the conformational equilibrium
